From ChEMBL document CHEMBL3885861, “Open TG-GATES”

Organism: Rattus norvegicus
Assay: Open TG-GATES - Regimen: Daily Repeat
Type: toxicity, organism-based, Sprague-Dawley
Set-up: regimen Daily Repeat, gender Male, age 6 weeks
Conditions: in vivo, po, route gavage; for APTT / Bas / Eos / Fbg / Hb / Ht / Lym / MCH / MCHC / MCV / Mono / Neu / PT / Plat / RBC / Ret / WBC: tissue Blood; for KIDNEY_L / KIDNEY_R / KIDNEY_TOTAL: tissue Kidney; for LIVER: tissue Liver; for A/G / ALP / ALT / AST / BUN / CRE / Ca / Cl / DBIL / GLC / IP / K / LDH / Na / PL / RALB / TBIL / TC / TG / TP / gamma-GTP: tissue Plasma
[1] = 0 mg/kg, 72 h, dose level Control, time 3 day
[2] = 0 mg/kg, […], dose level Control, time 7 day
[3] = 0 mg/kg, […], dose level Control, time 14 day
[4] = 0 mg/kg, […], dose level Control, time 28 day
[5] = 20 mg/kg, 72 h, dose level Low, time 3 day
[6] = 20 mg/kg, […], dose level Low, time 7 day
[7] = 20 mg/kg, […], dose level Low, time 14 day
[8] = 20 mg/kg, […], dose level Low, time 28 day

## CCc1oc2ccccc2c1C(=O)c1cc(Br)c(O)c(Br)c1 [BENZBROMARONE]
[1]
  TERMINAL_BW: 230.4 g
  APTT: 16.2 s
  Bas: 0%
  Eos: 1.6%
  Fbg: 232 mg/dL
  Hb: 14.5 g/dL
  Ht: 42.7%
  Lym: 73%
  MCH: 22.5 pg
  MCHC: 34%
  MCV: 66.2 fL
  Mono: 6.6%
  Neu: 18.6%
  PT: 11.7 s
  Plat: 111.1 x10_4/uL
  RBC: 645.6 x10_4/ul
  Ret: 7.2%
  WBC: 113.8 x10_2/uL
  KIDNEY_L: 1 g
  KIDNEY_R: 1 g
  KIDNEY_TOTAL: 2 g
  LIVER: 11.1 g
  A/G: 2
  ALP: 921.2 IU/L
  ALT: 34.6 IU/L
  AST: 62.8 IU/L
  BUN: 16.4 mg/dL
  CRE: 0.5 mg/dL
  Ca: 9.9 mg/dL
  Cl: 106.3 meq/L
  DBIL: 0.008 mg/dL
  GLC: 197 mg/dL
  IP: 7.5 mg/dL
  K: 5.1 meq/L
  LDH: 84.6 IU/L
  Na: 139.5 meq/L
  PL: 156.8 mg/dL
  RALB: 3.9 g/dL
  TBIL: 0.3 mg/dL
  TC: 82 mg/dL
  TG: 106 mg/dL
  TP: 5.9 g/dL
  gamma-GTP: 0.6 IU/L
[2]
  TERMINAL_BW: 262.9 g
  APTT: 16.8 s
  Bas: 0%
  Eos: 1%
  Fbg: 236.4 mg/dL
  Hb: 14.5 g/dL
  Ht: 42.7%
  Lym: 80%
  MCH: 21.4 pg
  MCHC: 33.8%
  MCV: 63.3 fL
  Mono: 6.6%
  Neu: 12.4%
  PT: 11.9 s
  Plat: 113.2 x10_4/uL
  RBC: 675 x10_4/ul
  Ret: 5.5%
  WBC: 109.7 x10_2/uL
  KIDNEY_L: 1.1 g
  KIDNEY_R: 1.2 g
  KIDNEY_TOTAL: 2.3 g
  LIVER: 12.8 g
  A/G: 1.7
  ALP: 777 IU/L
  ALT: 31.8 IU/L
  AST: 60.6 IU/L
  BUN: 20.4 mg/dL
  CRE: 0.5 mg/dL
  Ca: 10.3 mg/dL
  Cl: 106.5 meq/L
  DBIL: 0.02 mg/dL
  GLC: 197.2 mg/dL
  IP: 7.1 mg/dL
  K: 5.1 meq/L
  LDH: 102.2 IU/L
  Na: 138.3 meq/L
  PL: 157.8 mg/dL
  RALB: 3.9 g/dL
  TBIL: 0.3 mg/dL
  TC: 74.4 mg/dL
  TG: 136.4 mg/dL
  TP: 6.1 g/dL
  gamma-GTP: 1 IU/L
[3]
  TERMINAL_BW: 315 g
  APTT: 16 s
  Bas: 0%
  Eos: 1.6%
  Fbg: 223.8 mg/dL
  Hb: 14.7 g/dL
  Ht: 43.8%
  Lym: 77.4%
  MCH: 20.9 pg
  MCHC: 33.6%
  MCV: 62.3 fL
  Mono: 4.4%
  Neu: 16.8%
  PT: 11.8 s
  Plat: 110.7 x10_4/uL
  RBC: 703.4 x10_4/ul
  Ret: 4.7%
  WBC: 138.1 x10_2/uL
  KIDNEY_L: 1.2 g
  KIDNEY_R: 1.2 g
  KIDNEY_TOTAL: 2.4 g
  LIVER: 13.9 g
  A/G: 1.8
  ALP: 712.8 IU/L
  ALT: 30.6 IU/L
  AST: 62.6 IU/L
  BUN: 18.2 mg/dL
  CRE: 0.5 mg/dL
  Ca: 10.2 mg/dL
  Cl: 108.1 meq/L
  DBIL: 0.008 mg/dL
  GLC: 187.6 mg/dL
  IP: 6.5 mg/dL
  K: 4.9 meq/L
  LDH: 85.6 IU/L
  Na: 140.1 meq/L
  PL: 158.6 mg/dL
  RALB: 3.9 g/dL
  TBIL: 0.3 mg/dL
  TC: 78.6 mg/dL
  TG: 139.8 mg/dL
  TP: 6.1 g/dL
  gamma-GTP: 1.2 IU/L
[4]
  TERMINAL_BW: 382.2 g
  APTT: 16.6 s
  Bas: 0%
  Eos: 1%
  Fbg: 230.2 mg/dL
  Hb: 15.5 g/dL
  Ht: 46.5%
  Lym: 83.8%
  MCH: 18.6 pg
  MCHC: 33.3%
  MCV: 55.9 fL
  Mono: 3.8%
  Neu: 11.4%
  PT: 12 s
  Plat: 106.6 x10_4/uL
  RBC: 832 x10_4/ul
  Ret: 2.6%
  WBC: 136.5 x10_2/uL
  KIDNEY_L: 1.4 g
  KIDNEY_R: 1.4 g
  KIDNEY_TOTAL: 2.9 g
  LIVER: 15.8 g
  A/G: 1.6
  ALP: 607.6 IU/L
  ALT: 28.2 IU/L
  AST: 58 IU/L
  BUN: 19.6 mg/dL
  CRE: 0.6 mg/dL
  Ca: 9.7 mg/dL
  Cl: 106.7 meq/L
  DBIL: 0.006 mg/dL
  GLC: 182 mg/dL
  IP: 6.5 mg/dL
  K: 4.5 meq/L
  LDH: 89.8 IU/L
  Na: 139.4 meq/L
  PL: 146.4 mg/dL
  RALB: 4 g/dL
  TBIL: 0.3 mg/dL
  TC: 70.4 mg/dL
  TG: 146.8 mg/dL
  TP: 6.4 g/dL
  gamma-GTP: 1.4 IU/L
[5]
  TERMINAL_BW: 239.2 g
  APTT: 16.2 s
  Bas: 0%
  Eos: 1%
  Fbg: 233.6 mg/dL
  Hb: 13.8 g/dL
  Ht: 41%
  Lym: 78.8%
  MCH: 22.4 pg
  MCHC: 33.7%
  MCV: 66.3 fL
  Mono: 7%
  Neu: 13.2%
  PT: 11.8 s
  Plat: 112.4 x10_4/uL
  RBC: 619.6 x10_4/ul
  Ret: 7.4%
  WBC: 116.5 x10_2/uL
  KIDNEY_L: 1.1 g
  KIDNEY_R: 1.1 g
  KIDNEY_TOTAL: 2.2 g
  LIVER: 12.8 g
  A/G: 2.1
  ALP: 818.8 IU/L
  ALT: 31.2 IU/L
  AST: 59.8 IU/L
  BUN: 18.6 mg/dL
  CRE: 0.6 mg/dL
  Ca: 10.4 mg/dL
  Cl: 105 meq/L
  DBIL: 0.008 mg/dL
  GLC: 189.2 mg/dL
  IP: 7.7 mg/dL
  K: 4.9 meq/L
  LDH: 90.2 IU/L
  Na: 139.5 meq/L
  PL: 158.8 mg/dL
  RALB: 4 g/dL
  TBIL: 0.3 mg/dL
  TC: 84.2 mg/dL
  TG: 114.2 mg/dL
  TP: 6 g/dL
  gamma-GTP: 0.8 IU/L
[6]
  TERMINAL_BW: 269 g
  APTT: 16.8 s
  Bas: 0%
  Eos: 1%
  Fbg: 244.4 mg/dL
  Hb: 14.2 g/dL
  Ht: 42%
  Lym: 79.8%
  MCH: 21.2 pg
  MCHC: 33.9%
  MCV: 62.6 fL
  Mono: 5.8%
  Neu: 13.4%
  PT: 11.9 s
  Plat: 113.1 x10_4/uL
  RBC: 670.8 x10_4/ul
  Ret: 5.9%
  WBC: 102 x10_2/uL
  KIDNEY_L: 1.2 g
  KIDNEY_R: 1.2 g
  KIDNEY_TOTAL: 2.4 g
  LIVER: 14.3 g
  A/G: 1.9
  ALP: 819.4 IU/L
  ALT: 34.6 IU/L
  AST: 61.8 IU/L
  BUN: 20 mg/dL
  CRE: 0.6 mg/dL
  Ca: 10.4 mg/dL
  Cl: 107.9 meq/L
  DBIL: 0.008 mg/dL
  GLC: 187.8 mg/dL
  IP: 7.9 mg/dL
  K: 4.9 meq/L
  LDH: 92 IU/L
  Na: 138.5 meq/L
  PL: 163.8 mg/dL
  RALB: 4 g/dL
  TBIL: 0.3 mg/dL
  TC: 82 mg/dL
  TG: 139.6 mg/dL
  TP: 6.2 g/dL
  gamma-GTP: 1 IU/L
[7]
  TERMINAL_BW: 309.9 g
  APTT: 16.5 s
  Bas: 0%
  Eos: 1%
  Fbg: 228.8 mg/dL
  Hb: 14.4 g/dL
  Ht: 43.4%
  Lym: 81.4%
  MCH: 20.8 pg
  MCHC: 33.3%
  MCV: 62.5 fL
  Mono: 6.2%
  Neu: 11.2%
  PT: 11.7 s
  Plat: 104.8 x10_4/uL
  RBC: 694.6 x10_4/ul
  Ret: 4.4%
  WBC: 128.4 x10_2/uL
  KIDNEY_L: 1.2 g
  KIDNEY_R: 1.3 g
  KIDNEY_TOTAL: 2.5 g
  LIVER: 15.3 g
  A/G: 1.8
  ALP: 708.6 IU/L
  ALT: 29.4 IU/L
  AST: 57.2 IU/L
  BUN: 19.6 mg/dL
  CRE: 0.6 mg/dL
  Ca: 10.4 mg/dL
  Cl: 107.5 meq/L
  DBIL: 0.002 mg/dL
  GLC: 191.8 mg/dL
  IP: 7.2 mg/dL
  K: 4.8 meq/L
  LDH: 88 IU/L
  Na: 140.3 meq/L
  PL: 168.2 mg/dL
  RALB: 4.1 g/dL
  TBIL: 0.3 mg/dL
  TC: 86 mg/dL
  TG: 139.4 mg/dL
  TP: 6.3 g/dL
  gamma-GTP: 2 IU/L
[8]
  TERMINAL_BW: 378.9 g
  APTT: 16.9 s
  Bas: 0%
  Eos: 1.4%
  Fbg: 223.4 mg/dL
  Hb: 15.4 g/dL
  Ht: 45.8%
  Lym: 85.4%
  MCH: 19.3 pg
  MCHC: 33.6%
  MCV: 57.6 fL
  Mono: 4.6%
  Neu: 8.6%
  PT: 12.1 s
  Plat: 101.2 x10_4/uL
  RBC: 795.8 x10_4/ul
  Ret: 2.8%
  WBC: 139.2 x10_2/uL
  KIDNEY_L: 1.5 g
  KIDNEY_R: 1.5 g
  KIDNEY_TOTAL: 2.9 g
  LIVER: 17.3 g
  A/G: 2
  ALP: 589.8 IU/L
  ALT: 30.6 IU/L
  AST: 57.4 IU/L
  BUN: 20.6 mg/dL
  CRE: 0.5 mg/dL
  Ca: 9.9 mg/dL
  Cl: 107.3 meq/L
  DBIL: 0.008 mg/dL
  GLC: 192 mg/dL
  IP: 6.6 mg/dL
  K: 4.4 meq/L
  LDH: 92.2 IU/L
  Na: 140.6 meq/L
  PL: 154.4 mg/dL
  RALB: 4.2 g/dL
  TBIL: 0.3 mg/dL
  TC: 75.6 mg/dL
  TG: 140 mg/dL
  TP: 6.4 g/dL
  gamma-GTP: 1.8 IU/L
